pIC50: −log10 of the molar value. Converted amounts (≈) assume the structure as drawn. Read-outs that look alike come from different tables or passages of the source.

In experiment [1] the test system is E. hirae ATCC 8043. Kind of experiment: Antimicrobial activity, MIC. The class given is cell-based. On the procedure: (§1) Each fullerene derivative or the like was dissolved in DMSO, then added to the culture medium of bacteria. Vancomycin is an antimicrobial agent used for drug resistant bacteria (Methicillin resistant strains, MRSA) which has been in trouble now. […] Among the regioisomers of the compound 2, 2t-2, 2t-3 and 2t-4, differences in the effects are observed in some degree depending on bacteria, however, there are no significant differences, and they have an antimicrobial activity substantially equivalent to that of vancomycin, and are also effective for MRSA. Furthermore, worthy of special mention is the fact that these fullerene derivatives and the like show an effective antimicrobial activity against also vancomycin-resistant bacteria (VRE). […] At present, vancomycin-resistant bacteria began to emerge, therefore, the compound 2 is expected to exert an effect on these.

For experiment [2], the system named is S. aureus 209P JC-1. Kind of experiment: Antimicrobial activity, MIC. Format: cell-based. On the procedure:
as §1

Experiment [3] deals with S. aureus M126 (MRSA). Kind of experiment: Antimicrobial activity, MIC. The class given is cell-based. On the procedure: as §1
Experiment [4] relates to S. aureus M133 (MRSA). Kind of experiment: Antimicrobial activity, MIC. Format: cell-based. On the procedure: as §1
Experiment [5] deals with S. eidermidis ATCC 14990. In words: Antimicrobial activity, MIC. Format: cell-based. On the procedure:
as §1

Experiment [6] has as its target HIV reverse transcriptase (Human immunodeficiency virus type 1 group M subtype B, UniProt P03366). Kind of experiment: HIV reverse transcriptase inhibitory activity (32P-dTTP incorporation). The class given is biochemical. To be noted: 1 hour at 37° C., pH 8.3. On the procedure: The experiment was performed as follows in 50 mM Tris-HCl buffer (pH 8.3); to 10 μL of a reaction solution which had been prepared so as to contain 30 mM NaCl, 10 mM MgCl, 2.5 mM DTT, 1.25 μg/mL poly(rA). oligo(dT) 12-18, 250 nM dTTP, ^32P-dTTP (800 μCi/mmol), 1 μl of a sample dissolved in DMSO, 1 μl of HIV reverse transcriptase (0.01 U/mL) were added, and the total volume was made up to 20 μl. After the solution was incubated for 1 hour at 37° C., 10 μl of the reaction solution was placed on a Whatman DE81 filter, which was washed three times with Na2HPO4, once with 70% ethanol and once with ethanol. The dried filter was placed in a vial, and the radioactivity was counted by the liquid scintillation measurement method, which was assigned to the HIV reverse transcriptase activity.

Experiment [7] concerns E. faecalis NCTC 12201 (VRE). In words: Antimicrobial activity, MIC. Format: cell-based. On the procedure:
as §1

For experiment [8], the system named is E. faecalis W-73. Kind of experiment: Antimicrobial activity, MIC. The class given is cell-based. On the procedure: as §1
The test system of experiment [9] is E. faecium vanA (VRE). In words: Antimicrobial activity, MIC. Format: cell-based. On the procedure:
as §1

The target of experiment [10] is T1, RNA polymerase of hepatitis C virus (Hepatitis C virus genotype 1a, UniProt P27958).
T1 construct: measuring RNA polymerase activity of hepatitis C virus
Kind of experiment: RNA polymerase activity of hepatitis C virus, inhibitory activity. The class given is biochemical. The source says:
(1) By using an experimental system for measuring RNA polymerase activity of hepatitis C virus (D. Dhanak et al., J. Biol. Chem., 277, 38322-[…] (2002)), its inhibitory activity was examined.
With regard to the foregoing compound 2, major regioisomers were separated and purified, however, with regard to others, bioactivities were investigated using mixtures.

T1 sequence (P27958 2421-3011): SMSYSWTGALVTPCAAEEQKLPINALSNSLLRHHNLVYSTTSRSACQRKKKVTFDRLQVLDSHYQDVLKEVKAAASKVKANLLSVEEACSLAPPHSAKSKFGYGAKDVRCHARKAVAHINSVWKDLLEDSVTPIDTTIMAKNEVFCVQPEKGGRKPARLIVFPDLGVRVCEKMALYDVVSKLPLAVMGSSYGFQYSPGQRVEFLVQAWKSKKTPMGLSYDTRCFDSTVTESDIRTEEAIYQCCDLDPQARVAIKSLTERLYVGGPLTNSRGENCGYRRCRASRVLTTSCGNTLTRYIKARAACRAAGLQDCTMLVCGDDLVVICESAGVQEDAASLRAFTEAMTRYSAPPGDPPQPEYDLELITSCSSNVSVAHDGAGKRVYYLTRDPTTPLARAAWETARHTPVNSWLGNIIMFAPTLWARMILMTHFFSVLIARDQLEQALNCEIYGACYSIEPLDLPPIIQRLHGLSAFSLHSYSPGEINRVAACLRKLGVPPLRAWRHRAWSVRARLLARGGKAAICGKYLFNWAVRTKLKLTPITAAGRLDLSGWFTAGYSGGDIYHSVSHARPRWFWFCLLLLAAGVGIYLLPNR

For the molecule `CN[C@H](CC(C)C)C(=O)N[C@H]1C(=O)N[C@@H](CC(N)=O)C(=O)N[C@H]2C(=O)N[C@H]3C(=O)N[C@H](C(=O)N[C@H](C(=O)O)c4cc(O)cc(O)c4-c4cc3ccc4O)[C@H](O)c3ccc(c(Cl)c3)Oc3cc2cc(c3O[C@@H]2O[C@H](CO)[C@@H](O)[C@H](O)[C@H]2O[C@H]2C[C@](C)(N)[C@H](O)[C@H](C)O2)Oc2ccc(cc2Cl)[C@H]1O` [VCM, vancomycin, reference compound], the MIC – broadly, the least concentration at which growth counts as inhibited – worked out at 3120 µg/mL (≈ 2150 µM) in experiment [1] (Enterococcus hirae, ATCC8043); 1560 µg/mL (≈ 1080 µM) in experiment [2] (Staphylococcus aureus, 209P); 1560 µg/mL (≈ 1080 µM) in experiment [3] (Staphylococcus aureus, MRSA); 1560 µg/mL (≈ 1080 µM) in experiment [4] (Staphylococcus aureus, MRSA); 3120 µg/mL (≈ 2150 µM) in experiment [5].
As for “C60-bis(N,N-dimethyl-2-hexylpyyrolidinium iodido) [compound 4]”, the negative logarithm of the IC50 (pIC50) (commonly −log10 of the IC50, conventionally taken in molar units) in [6] is 6.10. For the same molecule, the MIC in [7] was 25000 µg/mL; in experiment [8], 50000 µg/mL; in experiment [9], 12500 µg/mL; in [1] (E. hirae ATCC 8043) it was 25000 µg/mL; in [2] (S. aureus 209P JC-1), 6250 µg/mL; in experiment [3] (S. aureus M126 (MRSA)), 12500 µg/mL. Moreover, the MIC in experiment [4] (S. aureus M133 (MRSA)) and in experiment [5] (S. eidermidis ATCC 14990) was 12500 µg/mL throughout.
Consider `O=C(O)CN1C(C(=O)O)C23c4c5c6c7c8c9c(c%10c%11c2c2c4c4c%12c5c5c6c6c8c8c%13c9c9c%10c%10c%11c%11c2c2c4c4c%12c%12c5c5c6c8c6c8c%13c9c9c%10c%10c%11c2c2c4c4c%12c5c6c5c8c9c%10c2c45)C73C1C(=O)O` (stereo not shown) [compound 8], for which the pIC50 was 5.70 in experiment [10] and 7.54 in [6].
Molecule `C[N+]1(C)CC23c4c5c6c7c8c9c(c%10c%11c2c2c4c4c%12c5c5c6c6c8c8c%13c9c9c%10c%10c%11c%11c2c2c4c4c%12c%12c5c5c6c8c6c8c%13c9c9c%10c%10c%11c2c2c4c4c%12c5c6c5c8c9c%10c2c45)C73C1` (stereo not shown) [compound 9] gave a pIC50 in [6] of 5.80.
Same read-out and setting: the value for `CN1CC23c4c5c6c7c8c9c(c%10c%11c2c2c4c4c%12c5c5c6c6c8c8c%13c9c9c%10c%10c%11c%11c2c2c4c4c%12c%12c5c5c6c8c6c8c%13c9c9c%10c%10c%11c2c2c4c4c%12c5c6c5c8c9c%10c2c45)C73C1c1ccc[n+](C)c1` (stereo not shown) [compound 12] was 5.28; that for `O=C(O)CN1CC23c4c5c6c7c8c9c(c%10c%11c2c2c4c4c%12c5c5c6c6c8c8c%13c9c9c%10c%10c%11c%11c2c2c4c4c%12c%12c5c5c6c8c6c8c%13c9c9c%10c%10c%11c2c2c4c4c%12c5c6c5c8c9c%10c2c45)C73C1C(=O)O` (stereo not shown) [compound 10] was 6.00.

The values above are taken from patent US8344017B2, “Anti-hepatitis C virus agents and anti-HIV agents” (Mitsubishi Corporation, priority 2003, dated 2013).
